Data: PMC5750217 (Nature Communications, 2018)
Several values for one entry are separate records, joined by “and”; a condition that tells them apart may be missing. Identical values can stand only once.

What was measured:
wild-type GltPh [1] = target: T1, wild-type GltPh (Pyrococcus horikoshii, UniProt O59010); settings: published values, cited from earlier work
T1 construct: hexa-His (N, cleaved yes); made in house; host or cells: Escherichia coli Top10 (pBAD)
T1 sequence (O59010 1-425): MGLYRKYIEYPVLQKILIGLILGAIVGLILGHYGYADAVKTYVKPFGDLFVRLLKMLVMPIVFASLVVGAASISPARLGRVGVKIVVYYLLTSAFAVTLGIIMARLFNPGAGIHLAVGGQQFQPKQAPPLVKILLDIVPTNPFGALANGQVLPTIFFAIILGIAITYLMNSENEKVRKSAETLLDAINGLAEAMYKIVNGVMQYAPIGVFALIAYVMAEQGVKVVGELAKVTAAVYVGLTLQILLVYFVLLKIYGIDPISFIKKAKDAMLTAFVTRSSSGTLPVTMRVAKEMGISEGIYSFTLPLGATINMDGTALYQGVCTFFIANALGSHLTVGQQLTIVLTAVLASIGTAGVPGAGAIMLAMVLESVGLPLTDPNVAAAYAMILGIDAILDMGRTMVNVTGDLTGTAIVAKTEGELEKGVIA

GltPh-R397C [2] = target: T2, GltPh-R397C (Pyrococcus horikoshii, UniProt O59010, R397C); assay: biochemical; assay type: binding; settings: GltPh-R397C
T2 construct: hexa-His (N, cleaved yes); made in house; host or cells: Escherichia coli Top10 (pBAD)
Protocol: Fluorescence-based binding assays were performed by titrating purified protein (50 μg per ml) in 20 mM HEPES/Tris, pH 7.4, 200 mM choline chloride, 0.4 mM n-dodecyl^−β-D-maltopyranoside, 200 nM styryl fluorescent dye RH421 (Invitrogen, Inc., Grand Island, NY) with NaCl, L-ser, L-cys or benzylcysteine at 25 °C[51]. The RH421 dye was excited at 532 nm, and the fluorescence was collected at 628 nm using a QuantaMaster (Photon International Technology, Inc., Edison, NJ). Fluorescence emissions were measured after at least 10 min equilibration to ensure a stabilised signal. The data were analysed using GraphPad Prism version 6.0 for Mac (GraphPad Software, La Jolla California USA). Fractional fluorescence changes were normalised to maximal fluorescence changes, then plotted as a function of ligand concentration and fitted to the Hill equation. All the experiments were performed at least in triplicate.
Analysis of ligand binding data. The voltage sensitive amphipathic dye RH421 reports on Na+ binding to purified GltPh protein in detergent3. RH421 was used to follow Na+ binding to GltPh‐R397C protein either alone or in reactions coupled to binding of amino acids. […]
Coupled ions and amino acid binding was probed by titrating amino acids to the GltPh‐R397C protein in the presence of 10 – 100 mM Na+ ions. The obtained isotherms were analyzed to estimate an apparent number of Na+ ions coupled to binding of the amino acids.
Raw data were first normalized by the initial fluorescence of RH421 and plotted as fraction of fluorescence change (Supplementary […]
total amount of dye and detergent in the assay buffer.
To take into account significant amino acid‐independent Na+ binding, the sets of binding isotherms obtained at variable Na+ concentrations were fitted globally to a simplified binding equation: […]
KD,a is the combined dissociation constant for coupled Na+ and ligand binding and n is the apparent number of coupled ions. Fraction of the protein bound to either Na+ ions alone or to the ions and the […]
Fraction of the protein already bound to Na+ ions before ligand addition is: […]
Fractional fluorescence change Y is fitted to an equation: […]
where Y0 and ∆Y are, respectively, baseline and the signal difference between fully bound and apo […]
KD,a and n were fitted globally for each ligand. Y0 and ∆Y were adjusted for each isotherm independently. […]
individual isotherm to a standard Hill equation, plotted the apparent dissociation constants as functions of Na+ concentrations and compared the values to those predicted using the parameters from the global fits (Supplementary Figure 8).

GltPh-R397C [3] = target: T2, GltPh-R397C; assay: biochemical; settings: GltPh-R397C, 1 µM L-[3H]serine
Protocol: (§1) Mutant and wild-type GltPh with an amino-terminal hexa-His tag were expressed in Escherichia coli Top10 cells (Invitrogen), which were grown in Luria broth medium at 37 °C. Ampicillin was added to a final concentration of 100 μg per ml. To induce expression of GltPh, 0.1% L-arabinose was added when cells reached an optical density of 0.6 at 660 nm, and cells were harvested 4 h post induction. Membranes were isolated, and then solubilised with n-dodecyl-β-D-maltopyranoside (C12M, Anatrace). Histidine containing proteins were purified using Ni^2+−nitrilotriacetic acid resin (Qiagen). The histidine tag was subsequently removed from GltPh by digestion with thrombin (10 U per mg protein) and the protein further purified on a Superdex 200 size exclusion column, where the detergent was exchanged to n-decyl-β-D-maltopyranoside (C10M, Anatrace).
(§2) Pure protein was reconstituted into liposomes composed of 75% E. coli Polar Lipid Extract and 25% 1-palmitoyl-2-oleoyl-sn-glycero-3 ^−phopshocholine (Avanti Polar Lipids). Lipids were mixed, dried under nitrogen and resuspended in internal buffer (100 mM KCl, 20 mM HEPES-Tris pH 7.5) using brief sonication (Laboratory Supplies Co.). The lipid suspension was frozen in liquid nitrogen and thawed at room temperature several times. Liposomes were formed by extrusion through 400 nm polycarbonate membranes (Avanti Polar Lipids) and were treated with Triton X-100 at a 0.5:1 (w/w) detergent to lipid ratio prior to the addition of protein at 0.25 μg protein per mg lipid. The protein/lipid mixture was left at room temperature for 30 min before detergent was removed using SM2 Biobeads (BioRad). The mixture was then incubated with gentle agitation, with four consecutive batches of Biobeads (80 mg per ml). Proteoliposomes were concentrated by centrifugation at 150,000 g for 30 min, resuspended at 100 mg lipid per ml and either used immediately or flash-frozen in liquid nitrogen and stored at −80 °C.
(§3) Mutant and wild-type GltPh-mediated transport of radiolabelled substrate was assayed by diluting proteoliposomes (100 mg lipid per ml) 133-fold into uptake buffer (100 mM NaCl, 20 mM HEPES-Tris pH 7.5, 1 μM valinomycin, 100 nM–1 µM L-[^3H]substrate) pre-warmed to 30 °C. At each time point, a 200 µl aliquot was removed and diluted 10-fold into ice-cold quench buffer (100 mM LiCl, 20 mM HEPES-Tris pH 7.5), followed by immediate filtration over nitrocellulose filters (0.22 μm pore size, Millipore). The filters were washed with ice-cold quench buffer and assayed for radioactivity using a Trilux beta counter (PerkinElmer). To establish substrate concentration–response curves, extraliposomal L-[^3H]substrate was varied between 500 nM and 100 µM, maintaining NaCl concentrations at 300 mM. For inhibitor concentration–response curves, for wild-type GltPh 100 nM L-[^3H]aspartate, and for mutant GltPh 1 µM L-[^3H]serine, was co-applied with varying inhibitor concentrations. Background levels of uptake were measured by diluting proteoliposomes into internal buffer (100 mM KCl, 20 mM HEPES-Tris pH 7.5) containing 1 µM of valinomycin and the indicated concentrations of L-[^3H]substrate.
Supplementary Figure 6. GltPh‐R397C, ASCT1 and ASCT2 are functional cysteine transporters. (a) Purified GltPh‐R397C was reconstituted into liposomes and 10µM 35S‐cysteine transport was measured over 10 minutes alone or in the presence of 1 mM dithiothreitol (DTT). Background levels of uptake were measured by diluting proteoliposomes into internal buffer (100 mM KCl, 20 mM HEPES‐Tris pH 7.5) containing 1 µM of valinomycin and the 10µM 35S‐cysteine. […]
(c) Neutral amino acid exchange in GltPh‐R397C. Counterflow experiments in which Na+ and amino acid loaded liposomes were used to detect the transport of a range of unlabelled neutral amino acids by exchanging with external 3H‐serine. Counterflow assays were performed using liposomes containing 200mM NaCl, 20 mM HEPES/Tris pH 7.5, and 1 mM of unlabelled amino acid as indicated. […]

GltPh-G396S/R397C = target: T3, GltPh-G396S/R397C (Pyrococcus horikoshii, UniProt O59010, G396S/R397C); assay: biochemical; assay type: biochemical; settings: GltPh-G396S/R397C; 1 µM L-[3H]serine; read-out: IC50 for inhibition of L-[3H]serine transport
T3 construct: hexa-His (N, cleaved yes); made in house; host or cells: Escherichia coli Top10 (pBAD)
Protocol: as §1, §2, §3

glutamate transporters = system: glutamate transporters; parameters: method as in PMID 9463476; settings: quoted in discussion; cited from earlier work
wild-type GltPh [4] = target: T1, wild-type GltPh; assay: Proteoliposome transport assay, wild-type GltPh; assay type: biochemical; settings: 100 nM L-[3H]aspartate
Protocol: as §1, §2, §3

ASCTs = system: ASCTs; parameters: method as in PMID 9463476; settings: quoted in discussion; cited from earlier work
[5] = target: the molecule itself; assay: crystal structure; hanging-drop vapour diffusion at 4 °C, protein ~7 mg per ml in n-decyl-maltopyranoside, 15-21% PEG1000, 0.1 M LiSO4, 0.05 M citric acid, 0.05 M Na2HPO4; space group P61; refined with threefold NCS restraints; with L-aspartate (wild type) or 5 mM L-cysteine, L-serine or benzylcysteine (R397C)

T2 sequence (O59010 whole entry R397C): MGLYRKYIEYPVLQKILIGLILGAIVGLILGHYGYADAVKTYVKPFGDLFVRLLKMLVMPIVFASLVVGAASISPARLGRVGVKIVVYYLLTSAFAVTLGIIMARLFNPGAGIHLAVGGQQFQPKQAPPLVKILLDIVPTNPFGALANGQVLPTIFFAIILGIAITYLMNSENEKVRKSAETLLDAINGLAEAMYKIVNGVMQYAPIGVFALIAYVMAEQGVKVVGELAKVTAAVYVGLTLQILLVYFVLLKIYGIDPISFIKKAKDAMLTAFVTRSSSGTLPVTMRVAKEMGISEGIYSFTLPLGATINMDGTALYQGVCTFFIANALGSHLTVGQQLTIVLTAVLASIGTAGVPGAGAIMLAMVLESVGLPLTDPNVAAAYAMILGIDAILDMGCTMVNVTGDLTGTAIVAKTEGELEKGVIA
T3 sequence (O59010 whole entry G396S/R397C): as the sequence (O59010 whole entry R397C) above, with G396S counted along it

[Na+] [Na+]
Kd (wild-type GltPh [1]; ref Reyes et al., 2013, read-out: KD,Na of Na+ binding): 99300 µM | nNa of Na+ binding (wild-type GltPh [1]; ref Reyes et al., 2013): 1.6 | Hill coefficient nNa of Na+ binding in the absence of amino acids (GltPh-R397C [2]): 1.2 and 1.2 ± 0.1 | Kd (GltPh-R397C [2]; Hill fit, read-out: KD,Na of Na+ binding in the absence of amino acids): 38000 µM

N[C@H](C(=O)O)[C@H](OCc1ccccc1)C(=O)O [TBOA, L-threo-β-oxybenzylaspartic acid]
IC50 for inhibition of L-[3H]serine transport (GltPh-R397C [3]): poorly inhibited | IC50 (GltPh-G396S/R397C): 500 ± 200 µM | Affinity for the glutamate transporters (glutamate transporters): ~ 50 μM | IC50 (wild-type GltPh [4]; read-out: IC50 for inhibition of L-[3H]aspartate transport): 2 ± 1 µM

N[C@@H](COCc1ccccc1)C(=O)O [benzylserine]
IC50 (GltPh-R397C [3]; read-out: IC50 for inhibition of L-[3H]serine transport): 110 ± 10 µM | IC50 (GltPh-G396S/R397C): 120 ± 20 µM | IC50 for inhibition of L-[3H]aspartate transport (wild-type GltPh [4]): ineffective | Affinity for the ASCTs (ASCTs): ~ 1 mM

B1: GltPh-R397C (natural protein, Pyrococcus horikoshii)
chain: MGLYRKYIEYPVLQKILIGLILGAIVGLILGHYGYADAVKTYVKPFGDLFVRLLKMLVMPIVFASLVVGAASISPARLGRVGVKIVVYYLLTSAFAVTLGIIMARLFNPGAGIHLAVGGQQFQPKQAPPLVKILLDIVPTNPFGALANGQVLPTIFFAIILGIAITYLMNSENEKVRKSAETLLDAINGLAEAMYKIVNGVMQYAPIGVFALIAYVMAEQGVKVVGELAKVTAAVYVGLTLQILLVYFVLLKIYGIDPISFIKKAKDAMLTAFVTRSSSGTLPVTMRVAKEMGISEGIYSFTLPLGATINMDGTALYQGVCTFFIANALGSHLTVGQQLTIVLTAVLASIGTAGVPGAGAIMLAMVLESVGLPLTDPNVAAAYAMILGIDAILDMGCTMVNVTGDLTGTAIVAKTEG
notes: GltPh of Pyrococcus horikoshii, wild-type background, with the point mutation R397C; Crystallised with L-cysteine, L-serine or benzylcysteine (5 mM each); source: E. coli Top10, purified (Ni-NTA, thrombin digestion, Superdex 200 SEC in detergent); not shown: His6, N-terminal, cleaved
stoichiometry N [5]: 3

B2: wild-type GltPh, aspartate transporter from Pyrococcus horikoshii (natural protein)
chain: MGLYRKYIEYPVLQKILIGLILGAIVGLILGHYGYADAVKTYVKPFGDLFVRLLKMLVMPIVFASLVVGAASISPARLGRVGVKIVVYYLLTSAFAVTLGIIMARLFNPGAGIHLAVGGQQFQPKQAPPLVKILLDIVPTNPFGALANGQVLPTIFFAIILGIAITYLMNSENEKVRKSAETLLDAINGLAEAMYKIVNGVMQYAPIGVFALIAYVMAEQGVKVVGELAKVTAAVYVGLTLQILLVYFVLLKIYGIDPISFIKKAKDAMLTAFVTRSSSGTLPVTMRVAKEMGISEGIYSFTLPLGATINMDGTALYQGVCTFFIANALGSHLTVGQQLTIVLTAVLASIGTAGVPGAGAIMLAMVLESVGLPLTDPNVAAAYAMILGIDAILDMGRTMVNVTGDLTGTAIVAKTEG
notes: GltPh, Na+-dependent aspartate transporter of the archaeon Pyrococcus horikoshii; wild-type background (not the seven-histidine mutant CAT-7); Crystallised with L-aspartate and Na+ in n-decyl-maltopyranoside; Three protomers in the asymmetric unit (threefold NCS); also called Wt; source: E. coli Top10, purified (Ni-NTA, thrombin digestion, Superdex 200 SEC in detergent); not shown: His6, …
binding result [5]: binds
